Data taken from patent US4339426A, “Bleomycin analog” (Regents of the University of California, priority 1980, dated 1982).

Assays:
VX2 adenocarcinomas = experiment: Tumor localization scans in rabbits bearing VX2 adenocarcinomas; format: in vivo, white rabbits; settings: for concentration of radioactivity in kidneys and bladder: two hours after injection
Procedure: Solutions of the indium-111 chelates of BLEDTA (A) or BLEDTA (B) were injected into the ear veins of white rabbits bearing type VX2 adenocarcinomas implanted under the right foreleg and the right hind leg. Two hours after injection, and again 18 to 24 hours after injection, the rabbits were scanned with a gamma camera, which provides a two-dimensionaldisplay of the distribution of radioactivity in the body. Scans were obtained 24 hours after injection of 700 μCi of ^111 In-BLEDTA(A).

KHJJ tumor = experiment: Organ distribution and tumor uptake of 111In-BLEDTA(B) in BALB/c mice with KHJJ tumor (Table II); format: in vivo
Procedure: The two bleomycin analogs-BLEDTA(A) and (B)-were rapidly and specifically labelled with ^111 In^3.spsp.+. A small aliquot of a dilute solution (10^-4 M) of BLEDTA(A) and (B) respectively in 0.1 M citrate (pH 2.8) was added to a container of dry ^111 InCl3, and incubated for 5 minutes at room temperature. The solutions were then diluted with normal saline solution for injection.
Following the injection of ^111 In-BLEDTA(B) into the tail veins of specially prepared BALB/c mice, the organ distribution and tumor uptake of radioactivity were determined. A tumor line, "KHJJ", derived from a primary mammary carcinoma arising in a mouse and maintained for over 100 transplant generations was used for the assay. Transplantation was by subcutaneous implantation of tumor fragments about 1 mm in diameter into the flank. The studies were carried out after 14 days of growth, when the tumor had reached a size of about 1 cm^3. On histological examination,the tumor has a "carcinoma-like" pattern with a predominance of islands of round or polygonal malignant cells with little stroma and a generally undifferentiated appearance. After transplantation, the tumor takes in almost all animals and grows without metastasizing or killing the mice within 14 days.
[…] After 18 hours, each mouse was anesthetized with ether, and blood was collected from the jugular vein into two preweighed capillary tubes. The mouse then was killed instantly by cervical dislocation and the major organs excised. Samples of muscle, skin, bone (left femur plus marrow), tail, and tumor also were taken. All tissue samples were weighed immediately after excision and counted in a well-type scintillation counter.

[1] = 24 hours after injection of 700 μCi
[2] = Table II, BLEDTA B 18 hours after tail vein injection

SMILES	visualization of small tumor 1 cm in diameter under right foreleg (VX2 adenocarcinomas; [1])	visualization of tumor 2 to 3 cm in diameter under right hind leg (VX2 adenocarcinomas; [1])	concentration of radioactivity in kidneys and bladder (VX2 adenocarcinomas)	uptake of radioactivity in liver and bone (KHJJ tumor; 18 hours)	Distribution and uptake: Blood (KHJJ tumor; [2])	Distribution and uptake: Bone (KHJJ tumor; [2])	Distribution and uptake: Kidneys (KHJJ tumor; [2])	Distribution and uptake: Liver (KHJJ tumor; [2])	Distribution and uptake: Lungs (KHJJ tumor; [2])	Distribution and uptake: Muscle (KHJJ tumor; [2])	Distribution and uptake: Skin (KHJJ tumor; [2])	Distribution and uptake: Spleen (KHJJ tumor; [2])	Distribution and uptake: Tumor (KHJJ tumor; Table II, KHJJ tumor, BLEDTA B 18 hours after tail vein injection)	tumor/organ radioactivity concentration ratios (KHJJ tumor; all organs examined except the kidneys)
Cc1c(N)nc(C(CC(N)=O)NCC(N)C(N)=O)nc1C(=O)NC(C(=O)NC(C)C(O)C(C)C(=O)NC(C(=O)NCCc1nc(-c2nc(C(=O)NCCC[S+](C)CC(=O)Nc3ccc(C(CN(CC(=O)O)CC(=O)O)N(CC(=O)O)CC(=O)O)cc3)cs2)cs1)C(C)O)C(OC1OC(CO)C(O)C(O)C1OC1OC(CO)C(O)C(OC(N)=O)C1O)c1cnc[nH]1 (stereo not drawn) [BLEDTA(A)]	clearly visualized	strikingly evident	high concentrations of radioactivity in the kidneys and bladder	–	–	–	–	–	–	–	–	–	–	–
Cc1c(N)nc(C(CC(N)=O)NCC(N)C(N)=O)nc1C(=O)NC(C(=O)NC(C)C(O)C(C)C(=O)NC(C(=O)NCCc1nc(-c2nc(C(=O)NCCCSCC(=O)Nc3ccc(C(CN(CC(=O)O)CC(=O)O)N(CC(=O)O)CC(=O)O)cc3)cs2)cs1)C(C)O)C(OC1OC(CO)C(O)C(O)C1OC1OC(CO)C(O)C(OC(N)=O)C1O)c1cnc[nH]1 (stereo not drawn) [BLEDTA(B)]	–	–	high concentrations of radioactivity in the kidneys and bladder	quite low	.205 ± .066 % of injected radioactivity pe	.188 ± .080 % of injected radioactivity pe	1.023 ± .333 % of injected radioactivity pe	.263 ± .068 % of injected radioactivity pe	.254 ± .067 % of injected radioactivity pe	.063 ± .015 % of injected radioactivity pe	.166 ± .052 % of injected radioactivity pe	.327 ± .088 % of injected radioactivity pe	.393 ± .015 % of injected radioactivity pe	Favorable
